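Cultured in 96-well plates, cells were exposed to test compound for 48 hours across five concentrations. At the GI50, growth is halved.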 Activity calls are given as the source filed them. Cut-off read from the data, not from the text of the source: active = GI50 up to about 1.1 µM and inactive = higher. Starred links: 1 amine or outer side, 2 acyl side, 3 side chain; linkers in the order of their positions; H or OH if unused. Positions of bridges follow the written chain, without caps; N, C: chain ends. Non-standard residues stand in square brackets, D forms with d. Residues, ends and D or L forms follow the SMILES beside them. Chains are numbered I, II in the order given. Actinocin(9to1) = Cc1c2oc3c(C)ccc(C(=O)[*:1])c3nc-2c(C(=O)[*:2])c(N)c1=O; NMeV = CN[CH](C(=O)O)C(C)C; Sar = CNCC(=O)O
Tests used:
Assay in all cases: NCI-60 cell line screen, 48 h
[1] = system: ACHN
[2] = system: DU-145
[3] = system: Hs-578T
[4] = system: M14
[5] = system: MDA-MB-231
[6] = system: MDA-N
[7] = system: MOLT-4
[8] = system: NCI/ADR-RES
[9] = system: OVCAR-4
[10] = system: SF-295
[11] = system: SK-MEL-28
[12] = system: SN12C
[13] = system: SNB-19
[14] = system: SR
[15] = system: SW-620
[16] = system: UACC-257
[17] = system: 786-0
[18] = system: RPMI-8226
[19] = system: SK-MEL-2
[20] = system: UACC-62

SMILES	GI50 [1]	GI50 [2]	GI50 [3]	GI50 [4]	GI50 [5]	GI50 [6]	GI50 [7]	GI50 [8]	GI50 [9]	GI50 [10]	GI50 [11]	GI50 [12]	GI50 [13]	GI50 [14]	GI50 [15]	GI50 [16]	GI50 [17]	GI50 [18]	GI50 [19]	GI50 [20]
Cc1ccc(S(=O)(=O)N2CCCN(S(=O)(=O)c3ccc(C)cc3)CC2)cc1	> 100 µM (inactive)	> 100 µM (inactive)	> 100 µM (inactive)	> 100 µM (inactive)	> 100 µM (inactive)	> 100 µM (inactive)	> 100 µM (inactive)	> 100 µM (inactive)	> 100 µM (inactive)	> 100 µM (inactive)	> 100 µM (inactive)	> 100 µM (inactive)	> 100 µM (inactive)	> 100 µM (inactive)	> 100 µM (inactive)	> 100 µM (inactive)				
Cn1c2c(c3ccccc31)CCN(CCCCN1CCN(c3ccccc3)CC1)C2=O	> 100 µM (inactive)	35.9 µM (inactive)	12.4 µM (inactive)	4.58 µM (inactive)	> 10 µM (inactive)	21.6 µM (inactive)	7.38 µM (inactive)		42.1 µM (inactive)	> 88.3 µM (inactive)	15.8 µM (inactive)	> 65.6 µM (inactive)	75.9 µM (inactive)	8.93 µM (inactive)	22.8 µM (inactive)	5.86 µM (inactive)	29.6 µM (inactive)	17 µM (inactive)	24 µM (inactive)	31.8 µM (inactive)
Cc1c(-c2ccccc2)[nH]c2cc(Cl)ccc2c1=O	55.8 µM (inactive)	> 100 µM (inactive)	14.8 µM (inactive)	76.2 µM (inactive)	70.8 µM (inactive)	10.2 µM (inactive)	> 100 µM (inactive)		22.9 µM (inactive)		71.9 µM (inactive)	> 100 µM (inactive)	52.8 µM (inactive)	18.7 µM (inactive)		49.2 µM (inactive)		> 100 µM (inactive)	37.8 µM (inactive)	54.6 µM (inactive)
CN1C(C)(C)CC(=O)C(Br)C1(C)C (stereo not drawn)	> 100 µM (inactive)	> 100 µM (inactive)	> 100 µM (inactive)	> 100 µM (inactive)		> 100 µM (inactive)	> 100 µM (inactive)	> 100 µM (inactive)	> 100 µM (inactive)	> 100 µM (inactive)	> 100 µM (inactive)	> 100 µM (inactive)	> 100 µM (inactive)	> 100 µM (inactive)	> 100 µM (inactive)	> 100 µM (inactive)	> 100 µM (inactive)	> 100 µM (inactive)	> 100 µM (inactive)	> 100 µM (inactive)
Cc1nc2ccccc2n1Cc1nnc2n1N=C(c1ccccc1)CS2	47.6 µM (inactive)	37.5 µM (inactive)	38.5 µM (inactive)	32.8 µM (inactive)	20.6 µM (inactive)	32.3 µM (inactive)	27.2 µM (inactive)	64.1 µM (inactive)	45.1 µM (inactive)	43.1 µM (inactive)	50.1 µM (inactive)	36.6 µM (inactive)	32.1 µM (inactive)		34.4 µM (inactive)	22.5 µM (inactive)	44 µM (inactive)	17.7 µM (inactive)	17 µM (inactive)	23.9 µM (inactive)
Cc1nc2[nH]ncn2c(=O)c1CCCl	> 10 µM (inactive)	> 10 µM (inactive)	> 10 µM (inactive)	> 10 µM (inactive)	> 10 µM (inactive)	> 10 µM (inactive)	> 10 µM (inactive)	> 10 µM (inactive)	> 10 µM (inactive)		> 10 µM (inactive)	> 10 µM (inactive)	> 10 µM (inactive)	> 10 µM (inactive)	> 10 µM (inactive)			> 10 µM (inactive)	> 10 µM (inactive)	> 10 µM (inactive)
C=C1C(=O)O[C@H]2C/C(C=O)=C\[C@H]3O[C@H]3/C(COC(=O)C(C)C)=C/CC12 (stereo partly drawn)	2.32 µM (inactive)	11.1 µM (inactive)	2.89 µM (inactive)		3.89 µM (inactive)	2.91 µM (inactive)	3.06 µM (inactive)	6.34 µM (inactive)		25.6 µM (inactive)	3.3 µM (inactive)	2.54 µM (inactive)	15.8 µM (inactive)	2.3 µM (inactive)	2.52 µM (inactive)	11.1 µM (inactive)	2.9 µM (inactive)	2.52 µM (inactive)		2.2 µM (inactive)
COc1c(C(=O)/C(=N/Nc2cccc(Cl)c2)C(C)=O)c(O)c(OC)c2occc12	70 µM (inactive)	> 100 µM (inactive)	70 µM (inactive)	> 100 µM (inactive)	73.6 µM (inactive)	> 100 µM (inactive)	39.5 µM (inactive)	> 100 µM (inactive)		58.1 µM (inactive)	> 100 µM (inactive)	61.2 µM (inactive)	> 100 µM (inactive)	> 100 µM (inactive)	76.4 µM (inactive)	> 100 µM (inactive)	> 100 µM (inactive)	80.9 µM (inactive)	> 100 µM (inactive)	> 100 µM (inactive)
COc1cc2c(cc1OC)C1C(O)C(OC)C(Br)C3(Br)CCN(C2)C13 (stereo not drawn)	> 100 µM (inactive)	> 100 µM (inactive)	> 100 µM (inactive)	> 100 µM (inactive)	> 100 µM (inactive)	> 100 µM (inactive)	54 µM (inactive)	> 100 µM (inactive)	> 100 µM (inactive)	> 100 µM (inactive)	> 100 µM (inactive)	> 100 µM (inactive)	46.2 µM (inactive)		> 100 µM (inactive)	> 100 µM (inactive)	> 100 µM (inactive)	> 100 µM (inactive)	> 100 µM (inactive)	> 100 µM (inactive)
CC(=O)O[C@H]1CC[C@H]2[C@@H]3CCC4=C/C(=N/OCCN(C)C)CC[C@]4(C)[C@H]3CC[C@]12C	13.4 µM (inactive)	16.1 µM (inactive)	13.5 µM (inactive)	3.18 µM (inactive)	20.2 µM (inactive)	3.65 µM (inactive)	5.42 µM (inactive)	12.6 µM (inactive)	10.9 µM (inactive)	5.41 µM (inactive)	14.6 µM (inactive)	16.9 µM (inactive)	7.59 µM (inactive)		9.51 µM (inactive)	7.38 µM (inactive)	8.17 µM (inactive)	1.2 µM (inactive)	11 µM (inactive)	10.7 µM (inactive)
C=C1C(=O)O[C@@]23C1CC[C@@H](C)C2CC[C@@]1(C)OC31 (stereo partly drawn)	12.4 µM (inactive)	3.85 µM (inactive)	16 µM (inactive)	3.52 µM (inactive)		5.09 µM (inactive)	3.61 µM (inactive)	16.8 µM (inactive)	8.91 µM (inactive)	18.2 µM (inactive)	6.35 µM (inactive)	7.24 µM (inactive)	18.6 µM (inactive)	3.71 µM (inactive)	8.81 µM (inactive)	6.75 µM (inactive)	5.71 µM (inactive)	2.9 µM (inactive)	5.58 µM (inactive)	12.1 µM (inactive)
CC(=O)/C=C/C1=C(C)CCCC1(C)CC(C)C (stereo not drawn)	22.1 µM (inactive)	69.3 µM (inactive)	32.7 µM (inactive)	31.6 µM (inactive)	70.8 µM (inactive)	28.9 µM (inactive)	17.7 µM (inactive)		63.8 µM (inactive)	34.2 µM (inactive)	40.8 µM (inactive)	18.8 µM (inactive)	27.4 µM (inactive)	16 µM (inactive)	18.6 µM (inactive)	22.2 µM (inactive)	19 µM (inactive)	13.7 µM (inactive)	19.6 µM (inactive)	22.4 µM (inactive)
Cc1c2oc3c(C)ccc(C(=O)NC4C(=O)NC(Cc5ccc(O)cc5)C(=O)N5CCCC5C(=O)N(C)CC(=O)N(C)C(C(C)C)C(=O)OC4C)c3nc-2c(C(=O)NC2C(=O)NC(Cc3ccc(O)cc3)C(=O)N3CCCC3C(=O)N(C)CC(=O)N(C)C(C(C)C)C(=O)OC2C)c(N)c1=O (stereo not drawn) (I: TYP[Sar][NMeV] / II: TYP[Sar][NMeV]; ester I:1-I:C, II:1-II:C; linker I:N-II:N via Actinocin(9to1); configuration not given here)	0.397 µM (active)	1.43 µM (inactive)	16.6 µM (inactive)	2.55 µM (inactive)	15.6 µM (inactive)	0.535 µM (active)	0.178 µM (active)	> 94 µM (inactive)	1.14 µM (inactive)	0.42 µM (active)	0.365 µM (active)	1.48 µM (inactive)	0.449 µM (active)		0.33 µM (active)	1.56 µM (inactive)	0.368 µM (active)	0.282 µM (active)		1.14 µM (inactive)
O=C1c2cccnc2-c2nccc3c2c1nc1ccccc13 [ASCIDIDEMIN]	0.0371 µM (active)	0.0621 µM (active)	0.637 µM (active)	0.0466 µM (active)	0.188 µM (active)	0.157 µM (active)	0.692 µM (active)	0.0551 µM (active)	1.03 µM (active)	0.0798 µM (active)	0.321 µM (active)	0.186 µM (active)	0.281 µM (active)		0.0705 µM (active)	0.321 µM (active)	0.752 µM (active)	0.264 µM (active)	0.184 µM (active)	0.224 µM (active)
Nc1ccccc1NC(=O)c1ccc(CNC(=O)OCc2cccnc2)cc1 [ENTINOSTAT]	1.88 µM (inactive)	0.805 µM (active)	3.31 µM (inactive)	1.04 µM (active)	2.1 µM (inactive)	0.778 µM (active)	0.557 µM (active)	1.24 µM (inactive)		2.02 µM (inactive)	1.97 µM (inactive)	4.75 µM (inactive)	2.65 µM (inactive)		0.929 µM (active)	1.59 µM (inactive)	3.35 µM (inactive)	0.158 µM (active)	0.424 µM (active)	0.622 µM (active)

From ChEMBL document CHEMBL1201862, “PubChem BioAssay data set” (2004)
